From patent US20080262047A1, “Ppar-Gamma Agonists for Improvement of Cognitive Function in Apoe4 Negative Patients” (priority 2005, published 2008)
Entries after “also recorded” stand apart in the source; their conditions may differ.

How the values were obtained:
[1] = tested on: patients diagnosed with mild to moderate AD; assay: Disability Assessment for Dementia (DAD) in Alzheimer's patients; format: in vivo, human; conditions: week 24
Experimental: (§1) Patients received either placebo or one of three dosage levels of extended release rosiglitazone provided once daily (2 mg, 4 mg and 8 mg tablets as described in Example 1). Patients were examined using the cognitive Alzheimer's Disease Assessment Scale (ADAS-cog; for further information see Rosen W G et al. Am. J. Psychiatry. 1984 141:1356-1364) and the Clinician's Interview-Based Impression of Change with caregiver information (CIBIC+; for further information see Knopman D S et al. Neurology 1994 44: 2315-2321); and secondary assessments were performed using: the Disability Assessment for Dementia (DAD, for further information see Gelinas L et al. Am J Occup Ther 1999 53: 471-81) and the Neuropsychiatric Inventory test (NPI, for further information see Cummings et al (1994) Neurology 44, 2308-2314) at the start of the study (baseline) and during the course of the study (after 8, 16 and 24 weeks of treatment).
Similar results were identified using the Disability Assessment for Dementia (DAD) test (Gelinas L et al. Am J Occup Ther 1999 53: 471-81). A prospectively defined test for interaction between APOE4 carriage status and DAD scores at week 24 was significant (P=0.006).

dopaminergic cells = conditions: acetaldehyde, MPTP; cited from earlier work
[2] = tested on: patients diagnosed with mild to moderate AD; assay: Neuropsychiatric Inventory (NPI) test in Alzheimer's patients; format: in vivo, human; conditions: week 24
Experimental: as §1
Similar results were identified using the Neuropsychiatric Inventory (NPI) test (Cummings et al (1994) Neurology 44, 2308-2314). A prospectively defined test for interaction between APOE4 carriage status and NPI scores at week 24 was significant ([…]).

[3] = tested on: patients diagnosed with mild to moderate AD; assay: ADAS-cog (cognitive Alzheimer's Disease Assessment Scale) in Alzheimer's patients; format: in vivo, human; conditions: for Cognitive function (ADAS-cog), in words / ADAS-cog change, in words: 24 weeks; for ADAS-cog change from baseline (FIG. 3), in words: course of the study
Experimental: (§2) Analysis for the full intent to treat (ITT) population was performed on 511 subjects who were randomly allocated into one of four specific treatment regimes. Genotyping analysis was performed on 63% (323/511) of the ITT population.
(§3) Patient population included Caucasian males and females between 50-85 years of age who had been diagnosed with mild to moderate AD, were not receiving any medications which could adversely prejudice the study (e.g. PPAR-gamma agonists or conventional AD medicaments) or had any other potentially prejudicial ailments (e.g. diabetes or major psychiatric disorders).
as §1
(§4) APOE genotype was determined using the TaqMan PCR-based method of McLeod et al 2001 infra.
(§5) All statistics reflect last observed assessment carried forward (LOCF) measurements.
It should be noted that in the case of ADAS-cog higher scores indicate reduced cognitive function.

[4] = tested on: patients diagnosed with mild to moderate AD; assay: CIBIC+ (Clinician's Interview-Based Impression of Change with caregiver information) in Alzheimer's patients; format: in vivo, human
Experimental: as §2, §3, §1, §4, §5
Higher CIBIC+ scores indicate a greater level of decline with scores below 4 denoting clinical improvement and scores above 4 denoting clinical decline.

[5] = tested on: individuals with mild cognitive impairment; conditions: at three years; cited from earlier work
[6] = tested on: patients with moderate to severe AD; conditions: cited from earlier work
AD and MCI = conditions: clinical trial; cited from earlier work

CN(CCOc1ccc(CC2SC(=O)NC2=O)cc1)c1ccccn1 (stereo not drawn) [Rosi, 5-[4-[2-(N-methyl-N-(2-pyridyl)amino)ethoxy]benzyl]thiazolidine-2,4-dione]
DAD, in words ([1]; APOE4+ subjects): demonstrated no improvement | DAD, in words ([1]; APOE4− subjects): demonstrated improvement on DAD | Protection of dopaminergic cells from toxic insults (dopaminergic cells): can protect dopaminergic cells | NPI, in words ([2]; APOE4+ subjects): demonstrated no improvement | NPI, in words ([2]; APOE4− subjects): demonstrated improvement on NPI | ADAS-cog change from baseline (FIG. 2), in words ([3]; APOE4+ individuals, 2 mg, 4 mg or 8 mg, after 8 weeks): slight improvement | ADAS-cog change from baseline (FIG. 2), in words ([3]; APOE4+ individuals, 2 mg, after 16 weeks): greater decline than the placebo | ADAS-cog change from baseline (FIG. 2), in words ([3]; APOE4+ individuals, 4 mg and 8 mg, after 16 weeks, versus placebo): the same or better clinical status | ADAS-cog change from baseline (FIG. 2), in words ([3]; APOE4+ individuals, all three treatment arms, after 24 weeks): finish with a clinical decline | Cognitive function (ADAS-cog), in words ([3]; APOE4 heterozygotes (single APOE4 allele), listed as rosiglitazone): do not show any recognisable trend; also recorded: stabilisation in cognitive function | ADAS-cog change, in words ([3]; APOE4 heterozygotes, 2 mg): some decline | ADAS-cog change, in words ([3]; APOE4 heterozygotes, 4 mg and 8 mg): little change | ADAS-cog change from baseline (FIG. 3), in words ([3]; APOE4 heterozygotes, higher doses (4, 8 mg)): remained close to the baseline | Cognitive function (ADAS-cog), in words ([3]; APOE4 homozygotes (two APOE4 alleles), listed as rosiglitazone): relatively large positive change in ADAS-cog scores; also recorded: may experience a clinical decline | ADAS-cog change from baseline (FIG. 3), in words ([3]; APOE4 homozygotes): experienced a clinical decline | ADAS-cog change from baseline (FIG. 2), in words ([3]; APOE4− individuals, 2 mg, 4 mg or 8 mg, all time points (8, 16 and 24 weeks)): marked improvement | Cognitive function (ADAS-cog), in words ([3]; APOE4− patients (no APOE4 allele), listed as rosiglitazone): general trend of improvement in cognitive function; also recorded: clinically relevant improvement in cognitive function relative to placebo | ADAS-cog effect of treatment, in words ([3]; ITT population as a whole, 2, 4, 8 mg, listed as rosiglitazone): trend is not statistically significant; also recorded: non-statistically significant trend to a general improvement | CIBIC+, in words ([4]; APOE4 heterozygotes, 2 mg, 24 weeks): decline | CIBIC+, in words ([4]; APOE4 heterozygotes, 4 mg, 24 weeks): Less decline | CIBIC+, in words ([4]; APOE4 heterozygotes, 8 mg, 24 weeks): slight improvement | CIBIC+, in words ([4]; APOE4 homozygotes, 24 weeks, compared to placebo): slight improvement | CIBIC+, in words ([4]; APOE4− patients, 24 week period): slight improvement | CIBIC+ difference between treatment groups and placebo, in words ([4]; ITT population, 24 weeks): did not lead to a distinguishable difference | CIBIC+ model adjusted, LSMean (SE) ([4]; Table 13a (updated analysis, additional subjects), PGx ITT population, APOE4 copies 1, Rosi 8 mg (n = 23), after 24 weeks): 3.70 (0.24)

COc1cc2c(cc1OC)C(=O)C(CC1CCN(Cc3ccccc3)CC1)C2 (stereo not drawn) [donepezil]
Rate at which patients developed AD [5]: no separation between groups

CC12CC3CC(C)(C1)CC(N)(C3)C2 [memantine]
Adverse effects [6]: low incidence of adverse effects | Rate of deterioration [6]: significantly retard the rate of deterioration

CCc1ccc(CCOc2ccc(CC3SC(=O)NC3=O)cc2)nc1 (stereo not drawn) [pioglitazone, 5-[4-[2-(5-ethyl-2-pyridyl)ethoxy]benzyl]thiazolidine-2,4-dione]
Protection of dopaminergic cells from toxic insults (dopaminergic cells): can protect dopaminergic cells

CS(=O)(=O)c1ccc(C2=C(c3ccccc3)C(=O)OC2)cc1 [rofecoxib]
Efficacy in AD and MCI (AD and MCI): failed to show any efficacy
